Data taken from US12486274B2, “Substituted pyrazolo-pyrimidines and uses thereof” (Verge Analytics, Inc., priority 2020, dated 2025).
Structures can show the parent of a compound that is named as a salt.

Target: Full length human recombinant PIKFYVE (Homo sapiens (Human), UniProt Q9Y2I7)
Assay: Inhibition of PIKfyve (microfluidic electrophoresis kinase assay)
Type: biochemical
Details: 2 nM enzyme, PI3P/PS substrate, 3 h at room temperature, 12 concentrations
Method: Full length human recombinant PIKFYVE expressed in baculovirus expression system as N-terminal GST-fusion protein (265 kDa) was obtained from Carna Biosciences (Kobe, Japan). The kinase substrate was prepared by mixing and sonicating fluorescently-labeled phosphatidylinositol 3-phosphate (PI3P) with phospho-L-serine (PS) at a 1:10 ratio in 50 mM HEPES buffer pH7.5.
The kinase reactions were assembled in 384-well plates (Greiner) in a total volume of […] as follows. Kinase protein was pre-diluted in an assay buffer comprising 25 mM HEPES, pH 7.5, 1 mM DTT, 2.5 mM MgCl2, and 2.5 mM MnCl2, and 0.005% Triton X-100, and dispensed into a 384-well plate (10 μL per well). Test compounds were serially pre-diluted in DMSO and added to the protein samples by acoustic dispensing (Labcyte Echo). The concentration of DMSO was equalized to 1% in all samples. All test compounds were tested at 12 concentrations. Apilimod was used as a reference compound and was tested in identical manner in each assay plate. Control samples (0%-inhibition, in the absence of inhibitor, DMSO only) and 100%-inhibition (in the absence of enzyme) were assembled in replicates of four and were used to calculate %-inhibition in the presence of compounds. The reactions were initiated by addition of 10 μL of 2× PI3P/PS substrate supplemented with ATP. The final concentration of enzyme was 2 nM, the final concentration of ATP was 10 mM, and the final concentration of PI3P/PS substrate was 1 μM (PI3P). The kinase reactions were allowed to proceed for 3 h at room temperature. Following incubation, the reactions were quenched by addition of […] of termination buffer (100 mM HEPES, pH 7.5, 0.01% Triton X-100, 20 mM EDTA). Terminated plates were analyzed on a microfluidic electrophoresis instrument (Caliper LabChip® 3000, Caliper Life Sciences/Perkin Elmer). The change in the relative fluorescence intensity of the PI (3) P substrate and PI (3,5) P product peaks was measured. The activity in each test sample was determined as the product to sum ratio (PSR): P/(S+P), where P is the peak height of the product, and S is the peak height of the substrate. Percent inhibition (Pinh) was determined using the following equation: Pinh=(PSR0% inh−PSRcompound)/(PSR0% inh−PSR100% inh)*100 in which PSRcompound is the product/sum ratio in the presence of compound, PSR0% inh is the product/sum ratio in the absence of compound, and the PSR100% inh is the product/sum ratio in the absence of the enzyme.

Full length human recombinant PIKFYVE, sequence (Q9Y2I7 whole entry): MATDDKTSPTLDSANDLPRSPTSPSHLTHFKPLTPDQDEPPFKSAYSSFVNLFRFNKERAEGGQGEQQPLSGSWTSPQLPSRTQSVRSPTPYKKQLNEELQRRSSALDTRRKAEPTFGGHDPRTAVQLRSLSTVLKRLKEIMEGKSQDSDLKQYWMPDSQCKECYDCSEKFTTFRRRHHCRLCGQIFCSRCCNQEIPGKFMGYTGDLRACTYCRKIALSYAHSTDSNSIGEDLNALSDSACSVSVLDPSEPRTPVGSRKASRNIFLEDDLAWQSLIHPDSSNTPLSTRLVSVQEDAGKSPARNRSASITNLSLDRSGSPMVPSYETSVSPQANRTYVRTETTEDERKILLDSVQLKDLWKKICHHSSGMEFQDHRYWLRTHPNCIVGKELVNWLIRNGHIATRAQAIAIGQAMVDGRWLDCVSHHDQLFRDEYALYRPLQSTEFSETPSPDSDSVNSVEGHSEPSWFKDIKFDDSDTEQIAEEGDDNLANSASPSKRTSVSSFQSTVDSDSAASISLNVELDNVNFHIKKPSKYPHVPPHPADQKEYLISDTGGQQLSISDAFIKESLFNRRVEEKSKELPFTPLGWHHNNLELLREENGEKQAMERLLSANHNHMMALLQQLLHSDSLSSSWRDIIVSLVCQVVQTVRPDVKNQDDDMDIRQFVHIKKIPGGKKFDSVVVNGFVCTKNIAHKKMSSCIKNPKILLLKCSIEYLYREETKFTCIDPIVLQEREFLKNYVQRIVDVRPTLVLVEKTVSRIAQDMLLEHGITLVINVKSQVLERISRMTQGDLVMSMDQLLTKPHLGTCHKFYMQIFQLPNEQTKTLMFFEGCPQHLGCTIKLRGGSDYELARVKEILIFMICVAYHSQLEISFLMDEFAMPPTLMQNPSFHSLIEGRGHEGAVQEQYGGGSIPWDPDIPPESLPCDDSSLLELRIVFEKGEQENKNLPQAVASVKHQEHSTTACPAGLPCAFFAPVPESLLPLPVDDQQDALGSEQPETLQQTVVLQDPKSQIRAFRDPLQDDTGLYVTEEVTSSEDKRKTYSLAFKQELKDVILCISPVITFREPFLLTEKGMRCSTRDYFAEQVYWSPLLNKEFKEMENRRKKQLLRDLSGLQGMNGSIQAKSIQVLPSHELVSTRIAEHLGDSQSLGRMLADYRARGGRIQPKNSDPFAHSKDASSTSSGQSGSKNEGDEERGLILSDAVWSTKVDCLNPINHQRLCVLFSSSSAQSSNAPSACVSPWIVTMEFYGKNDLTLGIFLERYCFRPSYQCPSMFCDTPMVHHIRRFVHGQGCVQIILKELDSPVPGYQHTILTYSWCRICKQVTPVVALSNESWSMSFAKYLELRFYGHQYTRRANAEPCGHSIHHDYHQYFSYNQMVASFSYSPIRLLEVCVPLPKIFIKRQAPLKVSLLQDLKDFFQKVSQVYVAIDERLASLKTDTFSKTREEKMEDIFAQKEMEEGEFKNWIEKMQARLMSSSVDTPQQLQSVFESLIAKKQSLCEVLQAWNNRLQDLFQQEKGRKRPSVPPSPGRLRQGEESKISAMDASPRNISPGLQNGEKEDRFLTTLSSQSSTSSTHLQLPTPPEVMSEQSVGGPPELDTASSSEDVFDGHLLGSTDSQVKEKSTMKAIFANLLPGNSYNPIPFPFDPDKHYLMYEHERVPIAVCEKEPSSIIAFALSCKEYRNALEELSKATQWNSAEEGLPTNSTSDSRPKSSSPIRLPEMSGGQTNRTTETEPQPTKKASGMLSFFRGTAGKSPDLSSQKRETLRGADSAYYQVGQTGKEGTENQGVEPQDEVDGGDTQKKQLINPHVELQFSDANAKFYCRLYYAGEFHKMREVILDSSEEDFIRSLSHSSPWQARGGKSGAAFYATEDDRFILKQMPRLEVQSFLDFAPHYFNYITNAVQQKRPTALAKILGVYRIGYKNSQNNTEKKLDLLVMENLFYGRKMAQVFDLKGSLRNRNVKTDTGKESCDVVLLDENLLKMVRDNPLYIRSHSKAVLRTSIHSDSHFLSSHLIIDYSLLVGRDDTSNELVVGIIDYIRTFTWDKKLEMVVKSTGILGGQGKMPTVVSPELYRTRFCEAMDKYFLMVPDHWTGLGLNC

`Cc1cccc(-c2ccn(-c3cc(N4CCOCC4)n4nc(-c5cc(C)no5)cc4n3)n2)c1` [Compound 110, 4-[2-(3-methylisoxazol-5-yl)-5-[3-(m-tolyl)pyrazol-1-yl]pyrazolo[1,5-a]pyrimidin-7-yl]morpholine] and `Cc1cccc(-c2ccn(-c3cc(N4CCOCC4)n4nc(-c5nccs5)cc4n3)n2)c1` [Compound 111, 4-[5-[3-(m-tolyl)pyrazol-1-yl]-2-thiazol-2-yl-pyrazolo[1,5-a]pyrimidin-7-yl]morpholine] are within 1.5-fold of each other in IC50: 2.2 nM for the first, 2.7 nM for the second.

Compared with `Cc1cccc(-c2ccn(-c3cc(N4CCOCC4)n4nc(-c5cn[nH]c5)cc4n3)n2)c1` [Compound 113, 4-[5-[3-(m-tolyl)pyrazol-1-yl]-2-(1H-pyrazol-4-yl)pyrazolo[1,5-a]pyrimidin-7-yl]morpholine], `c1ccc(-c2ccn(-c3cc(N4CCOCC4)n4nc(-c5cn[nH]c5)cc4n3)n2)cc1` [Compound 116, 4-[5-(3-phenylpyrazol-1-yl)-2-(1H-pyrazol-4-yl)pyrazolo[1,5-a]pyrimidin-7-yl]morpholine] is 32-fold higher in IC50: 2.5 nM for the first, 80.9 nM for the second. The first is the more potent here.

First: c1ccc(-c2ccn(-c3cc(N4CCOCC4)n4nc(-c5nccs5)cc4n3)n2)cc1 [Compound 114, 4-[5-(3-phenylpyrazol-1-yl)-2-thiazol-2-yl-pyrazolo[1,5-a]pyrimidin-7-yl]morpholine]
Second: c1ccc(-c2ccn(-c3cc(N4CCOCC4)n4nc(-c5ccncc5)cc4n3)n2)cc1 [Example 13, 4-[5-(3-phenylpyrazol-1-yl)-2-(4-pyridyl)pyrazolo[1,5-a]pyrimidin-7-yl]morpholine]
The IC50 of the first is 2.1-fold lower: 100 nM for the first, 207 nM for the second. The first is the more potent here.

First: Cn1cc(-c2cc3nc(-n4ccc(-c5ccccc5)n4)cc(N4CCOCC4)n3n2)cn1 [Compound 115, 4-[2-(1-methylpyrazol-4-yl)-5-(3-phenylpyrazol-1-yl)pyrazolo[1,5-a]pyrimidin-7-yl]morpholine]
Second: c1ccc(-c2cnn(-c3cc(N4CCOCC4)n4nc(-c5ccncc5)cc4n3)c2)cc1 [Example 9, 4-[5-(4-phenylpyrazol-1-yl)-2-(4-pyridyl)pyrazolo[1,5-a]pyrimidin-7-yl]morpholine]
The IC50 of the first is lower: 62.4 nM for the first, greater than 10000 nM for the second.

Compared with `Cc1ccc(-c2cc(Nc3cc(N4CCOCC4)n4nc(-c5ccncc5)cc4n3)[nH]n2)cc1` [Example 1, 7-morpholino-2-(pyridin-4-yl)-N-(3-(p-tolyl)-1H-pyrazol-5-yl)pyrazolo[1,5-a]pyrimidin-5-amine, hydrogen chloride salt], `Cc1cccc(-c2cc(Nc3cc(N4CCOCC4)n4nc(-c5ccncc5)cc4n3)[nH]n2)c1` [Example 4, 7-morpholino-N-[3-(m-tolyl)-1H-pyrazol-5-yl]-2-(4-pyridyl)pyrazolo[1,5-a]pyrimidin-5-amine, Hydrogen Chloride Salt] is 4.7-fold lower in IC50: 2590 nM for the first, 550 nM for the second.

First: c1ccc(-c2cc(Nc3cc(N4CCOCC4)n4nc(-c5ccncc5)cc4n3)n[nH]2)cc1 [Example 2, 7-morpholino-N-(5-phenyl-1H-pyrazol-3-yl)-2-(4-pyridyl)pyrazolo[1,5-a]pyrimidin-5-amine]
Second: Cc1ccccc1-c1cc(Nc2cc(N3CCOCC3)n3nc(-c4ccncc4)cc3n2)n[nH]1 [Example 3, 7-morpholino-N-[5-(o-tolyl)-1H-pyrazol-3-yl]-2-(4-pyridyl)pyrazolo[1,5-a]pyrimidin-5-amine]
The IC50 of the first is 3.3-fold lower: 967 nM for the first, 3150 nM for the second. The first is the more potent here.

Going from `Cc1cc(Nc2cc(N3CCOCC3)n3nc(-c4ccncc4)cc3n2)n[nH]1` [Example 5, N-(5-methyl-1H-pyrazol-3-yl)-7-morpholino-2-(4-pyridyl)pyrazolo[1,5-a]pyrimidin-5-amine] to `c1cc(-c2cc3nc(Nc4cc(-c5ccncc5)[nH]n4)cc(N4CCOCC4)n3n2)ccn1` [Example 6, 7-morpholino-2-(4-pyridyl)-N-[5-(4-pyridyl)-1H-pyrazol-3-yl]pyrazolo[1,5-a]pyrimidin-5-amine], the IC50 falls from greater than 10000 nM to 6100 nM. The second is the more potent here.

Going from `Nc1cc(-c2ccccc2)nn1-c1cc(N2CCOCC2)n2nc(-c3ccncc3)cc2n1` [Example 7, 1-(7-morpholino-2-(pyridin-4-yl)pyrazolo[1,5-a]pyrimidin-5-yl)-3-phenyl-1H-pyrazol-5-amine] to `Cc1ccccc1-c1cc(N)n(-c2cc(N3CCOCC3)n3nc(-c4ccncc4)cc3n2)n1` [Example 8, 1-(7-morpholino-2-(pyridin-4-yl)pyrazolo[1,5-a]pyrimidin-5-yl)-3-(o-tolyl)-1H-pyrazol-5-amine], the IC50 rises from 38.4 nM to 6690 nM (170-fold).

Compared with `Cc1cccc(-c2cnn(-c3cc(N4CCOCC4)n4nc(-c5ccncc5)cc4n3)c2)c1` [Example 10, 4-[5-[4-(m-tolyl)pyrazol-1-yl]-2-(4-pyridyl)pyrazolo[1,5-a]pyrimidin-7-yl]morpholine], `c1cc(-c2cnn(-c3cc(N4CCOCC4)n4nc(-c5ccncc5)cc4n3)c2)ccn1` [Example 11, 4-[2-(4-pyridyl)-5-[4-(4-pyridyl)pyrazol-1-yl]pyrazolo[1,5-a]pyrimidin-7-yl]morpholine] is lower in IC50: greater than 10000 nM for the first, 2600 nM for the second. The second is the more potent here.

`Cc1cnn(-c2cc(N3CCOCC3)n3nc(-c4ccncc4)cc3n2)c1` [Example 12, 4-[5-(4-methylpyrazol-1-yl)-2-(4-pyridyl)pyrazolo[1,5-a]pyrimidin-7-yl]morpholine] and `Cc1ccn(-c2cc(N3CCOCC3)n3nc(-c4ccncc4)cc3n2)n1` [Example 16, 4-[5-(3-methylpyrazol-1-yl)-2-(4-pyridyl)pyrazolo[1,5-a]pyrimidin-7-yl]morpholine] cannot be ordered by IC50: greater than 10000 nM for the first, greater than 10000 nM for the second.

Going from `c1cc(-c2ccn(-c3cc(N4CCOCC4)n4nc(-c5ccncc5)cc4n3)n2)ccn1` [Example 15, 4-[2-(4-pyridyl)-5-[3-(4-pyridyl)pyrazol-1-yl]pyrazolo[1,5-a]pyrimidin-7-yl]morpholine] to `Cc1cccc(-c2ccn(-c3cc(N4CCOCC4)n4nc(C(=O)N(C)C)cc4n3)n2)c1` [Example 24, N,N-dimethyl-7-morpholino-5-(3-(m-tolyl)-1H-pyrazol-1-yl)pyrazolo[1,5-a]pyrimidine-2-carboxamide], the IC50 falls from 1100 nM to 276 nM (4-fold). The second is the more potent here.

`CCNC(=O)c1cc2nc(-n3ccc(-c4cccc(C)c4)n3)cc(N3CCOCC3)n2n1` [Example 19, N-ethyl-7-morpholino-5-(3-(m-tolyl)-1H-pyrazol-1-yl)pyrazolo[1,5-a]pyrimidine-2-carboxamide] and `COCCNC(=O)c1cc2nc(-n3ccc(-c4cccc(C)c4)n3)cc(N3CCOCC3)n2n1` [Example 23, N-(2-methoxyethyl)-7-morpholino-5-(3-(m-tolyl)-1H-pyrazol-1-yl)pyrazolo[1,5-a]pyrimidine-2-carboxamide] are within 1.5-fold of each other in IC50: 76.2 nM for the first, 81.5 nM for the second.

Compared with `CCN(C)C(=O)c1cc2nc(-n3ccc(-c4cccc(C)c4)n3)cc(N3CCOCC3)n2n1` [Example 25, N-ethyl-N-methyl-7-morpholino-5-(3-(m-tolyl)-1H-pyrazol-1-yl)pyrazolo[1,5-a]pyrimidine-2-carboxamide], `Cc1cccc(-c2ccn(-c3cc(N4CCOCC4)n4nc(C(=O)N(C)C5CC5)cc4n3)n2)c1` [Example 26, N-cyclopropyl-N-methyl-7-morpholino-5-(3-(m-tolyl)-1H-pyrazol-1-yl)pyrazolo[1,5-a]pyrimidine-2-carboxamide] is 2.7-fold lower in IC50: 437 nM for the first, 162 nM for the second.

Compared with `Cc1cccc(-c2ccn(-c3cc(N4CCOCC4)n4nc(C(=O)NCC5CC5)cc4n3)n2)c1` [Example 27, N-(cyclopropylmethyl)-7-morpholino-5-(3-(m-tolyl)-1H-pyrazol-1-yl)pyrazolo[1,5-a]pyrimidine-2-carboxamide], `Cc1cccc(-c2ccn(-c3cc(N4CCOCC4)n4nc(C(=O)N5CCC5)cc4n3)n2)c1` [Example 28, azetidin-1-yl(7-morpholino-5-(3-(m-tolyl)-1H-pyrazol-1-yl)pyrazolo[1,5-a]pyrimidin-2-yl)methanone] is 1.9-fold higher in IC50: 73.7 nM for the first, 137 nM for the second. The first is the more potent here.

Compared with `Cc1cccc(-c2ccn(-c3cc(N4CCOCC4)n4nc(C(=O)N5CCCC5)cc4n3)n2)c1` [Example 29, (7-morpholino-5-(3-(m-tolyl)-1H-pyrazol-1-yl)pyrazolo[1,5-a]pyrimidin-2-yl) (pyrrolidin-1-yl)methanone], `Cc1cccc(-c2ccn(-c3cc(N4CCOCC4)n4nc(C(=O)N5CCCCC5)cc4n3)n2)c1` [Example 30, (7-morpholino-5-(3-(m-tolyl)-1H-pyrazol-1-yl)pyrazolo[1,5-a]pyrimidin-2-yl)(piperidin-1-yl)methanone] is 2.6-fold higher in IC50: 94.6 nM for the first, 247 nM for the second. The first is the more potent here.

Work on `Cc1cccc(-c2ccn(-c3cc(N4CCOCC4)n4nc(C(=O)N5CCOCC5)cc4n3)n2)c1` [Example 31, morpholino (7-morpholino-5-(3-(m-tolyl)-1H-pyrazol-1-yl)pyrazolo[1,5-a]pyrimidin-2-yl)methanone] yielded an IC50 of 242 nM.
